IC50 and Ki data for 25 molecules are collected here from US9732094B2, “Arylquinazolines” (Merck Patent GmbH, priority 2013, dated 2017).

Read-outs that look alike come from different tables or passages of the source. A value given as a limit tells only on which side of the number the result lay.

Data set [1] addresses DNA-PK (Homo sapiens (Human), UniProt P78527). Nature of the data set: DNA-PK assay (biochemical), flashplate 33P-ATP kinase assay. In a few lines: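 Reactions ran in streptavidin-coated flashplates and were halted by 200 mM EDTA, with a further 30 min at room temperature before saline washing.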
The target of data set [2] is Kv11.1 (hERG) (Homo sapiens (Human), UniProt Q12809). Kind of data set: Kv11.1 (hERG) ion channel activity (patch clamp assay), HEK293 cells transfected with hERG gene.
Chain of Kv11.1 (hERG) (Q12809 whole entry): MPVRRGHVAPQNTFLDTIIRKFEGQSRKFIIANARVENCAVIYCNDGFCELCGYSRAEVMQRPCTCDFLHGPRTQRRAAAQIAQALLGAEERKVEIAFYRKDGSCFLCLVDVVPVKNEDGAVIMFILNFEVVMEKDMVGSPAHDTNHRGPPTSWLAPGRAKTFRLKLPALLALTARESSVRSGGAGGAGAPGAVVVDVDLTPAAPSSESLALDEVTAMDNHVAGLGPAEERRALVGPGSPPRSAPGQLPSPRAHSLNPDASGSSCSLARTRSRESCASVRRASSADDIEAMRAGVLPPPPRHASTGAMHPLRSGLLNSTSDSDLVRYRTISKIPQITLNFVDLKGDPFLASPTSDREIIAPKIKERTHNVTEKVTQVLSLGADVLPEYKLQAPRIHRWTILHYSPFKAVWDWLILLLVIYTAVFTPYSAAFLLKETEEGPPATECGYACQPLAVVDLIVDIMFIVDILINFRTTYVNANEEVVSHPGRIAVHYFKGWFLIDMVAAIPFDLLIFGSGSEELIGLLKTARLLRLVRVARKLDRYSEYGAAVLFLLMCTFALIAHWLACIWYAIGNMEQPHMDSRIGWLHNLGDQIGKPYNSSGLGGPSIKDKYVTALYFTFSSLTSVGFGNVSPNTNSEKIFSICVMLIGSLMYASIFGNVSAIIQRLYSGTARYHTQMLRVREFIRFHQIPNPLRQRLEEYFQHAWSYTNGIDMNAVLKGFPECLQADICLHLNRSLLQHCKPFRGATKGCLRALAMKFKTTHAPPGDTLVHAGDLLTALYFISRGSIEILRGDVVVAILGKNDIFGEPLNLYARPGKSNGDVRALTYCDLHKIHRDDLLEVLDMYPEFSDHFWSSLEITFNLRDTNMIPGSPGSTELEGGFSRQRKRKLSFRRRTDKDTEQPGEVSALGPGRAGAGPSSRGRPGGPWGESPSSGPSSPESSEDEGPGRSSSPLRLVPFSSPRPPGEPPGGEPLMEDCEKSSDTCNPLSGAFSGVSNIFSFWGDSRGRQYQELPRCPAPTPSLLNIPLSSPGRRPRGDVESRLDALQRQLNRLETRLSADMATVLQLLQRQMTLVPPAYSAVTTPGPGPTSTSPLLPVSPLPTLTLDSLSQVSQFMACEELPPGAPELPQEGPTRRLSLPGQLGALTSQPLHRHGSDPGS
Protocol: C) Kv11.1 (hERG) Ion Channel Activity (Patch Clamp Assay)
The patch-clamp measurement was carried out at room temperature in whole-cell configuration on human embryonic kidney cells (HEK293) which have been transfected in a stable manner with the hERG gene.
The whole-cell configurations were carried out using an automated patch clamp device (Patchliner™, Nanion Technologies, Munich). […] The glass chip has a hole of defined size to which the cell is transferred into the Gigaseal by application of a reduced pressure and brought into the whole-cell configuration. Buffer, cell suspension and test substances were added to microchannels of the chip using a Teflon-coated pipette. The cells were clamped to a holding potential of −80 mV. For measurement of substance-promoted inhibition of the Kv11.1 channel, the following voltage protocol was applied at 10-second intervals: 51 ms/−80 mV, 500 ms/+40 mV, 500 ms/−40 mV, 200 ms/−80 mV. The leakage current is subtracted by means of the P4 method. The cells were resuspended in extracellular buffer (EC) and applied to the chip. After the cell had been collected, the seal was improved by addition of a seal enhancer buffer. As soon as the whole-cell configuration had been reached, the seal enhancer buffer was washed out and replaced by extracellular buffer. The measurement started in EC for 1.5 min. DMSO (vehicle control, 0.1% of DMSO) was then applied, and the control current was recorded for 3 min. The test substance was subsequently added twice in the same concentration, and the potassium current was measured for 3.5 min in each case.
The reference substance used was the Kv11.1 (hERG) ion channel blocker quinidine. The effects of test substances and quinidine were standardised to the associated vehicle control. The effect on the Kv11.1 (hERG) channel activity was assessed from the potassium current at −40 mV. For the calculation, the current was evaluated for the respective final trace.
During the measurement, an aliquot of the test substance was taken for concentration determination. The sample was measured immediately by HPLC, and the final concentration was determined from a calibration curve.
The target in data set [3] is DNA-PK phosphorylation at serine 2056 (Homo sapiens (Human), UniProt P78527). Kind of data set: DNA-PK phosphorylation at serine 2056 (cellular), bleomycin-treated HCT116 cells, ELISA. The format is cell-based. To be noted: read-out: IC50 pDNA-PK. In a few lines:
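Test compounds and bleomycin (10 μM) are added to adherent HCT116 cells for 6 h. Detection uses an HRP-based chemiluminescent ELISA, with phospho-DNA-PK signals standardised to total protein.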

[4] abbreviates: Ki [Kv1.11 hERG], patch clamp, HEK293 transfected with hERG gene.
Setting [5] is: cellular, HCT116 cells, 10 μM bleomycin, six hours.
Where [6] appears, read: Ki [Kv1.11 hERG], hERG patch clamp assay (cells without asterisk).
[7] abbreviates: cellular DNA-PK phosphorylation at serine 2056, HCT116.
[8] abbreviates: read-out: Ki [Kv1.11 hERG], hERG patch clamp assay (cells without asterisk).
Setting [9] is: read-out: Ki [Kv1.11 hERG], Table 5.
[10] abbreviates: read-out: Ki [Kv1.11 hERG], patch clamp, HEK293 transfected with hERG gene.

By IC50 is commonly meant the concentration at which inhibition is half-maximal. Broadly, the Ki is a measure of affinity in units of concentration, obtained from inhibition or displacement. For `OCc1csc(C(O)c2cc(-c3ncnc4cc(N5CCOCC5)ncc34)c(F)cc2Cl)n1` (stereo not drawn) [Example 141, [2-chloro-4-fluoro-5-(7-morpholin-4-ylpyrido[4,3-d]pyrimidin-4-yl)phenyl]-(4-hydroxymethylthiazol-2-yl)methanol], the half-maximal inhibitory concentration (IC50) in data set [1] (Table 5) is greater than 0.03 µM; in data set [3] (Table 5, HCT116 cells), 10 to 30 µM. For the same molecule, in data set [2] (Ki [Kv1.11 hERG], Table 5), the Ki fell in the range of 15 to 25 µM.
In the case of `OC(c1ccc(F)c(-c2ncnc3cc(N4CCOCC4)ccc23)c1)c1nccnc1OC1COC1` (stereo not drawn) [Example 32, [4-fluoro-3-(7-morpholin-4-yl-quinazolin-4-yl)phenyl]-[3-(oxetan-3-yloxy)-pyrazin-2-yl]methanol], the IC50 in data set [1] (enzymatic, 5 μM ATP) lay in the range of 0.007 to 0.03 µM; in data set [3] (setting [5]), 5 to 10 µM. This molecule also registered a Ki in data set [2] (setting [4]) of 15 to 25 µM.
For `NC(=O)C(c1ccc(F)c(-c2ncnc3cc(N4CCOCC4)ccc23)c1)c1nncc2sccc12` (stereo not drawn) [Example 285, 2-[4-Fluoro-3-(7-morpholin-4-yl-quinazolin-4-yl)-phenyl]-2-thieno-[2,3-d}pyridazin-4-yl-acetamide], the IC50 in data set [1] (biochemical DNA-PK assay) lay within 0.003 to 0.007 µM; in data set [3] (setting [7]), 10 to 30 µM. Besides, the Ki in data set [2] (setting [6]) fell in the range of 15 to 25 µM.
With `COc1nccnc1C(O)c1cc(-c2ncnc3cc(N4CCOCC4)cnc23)c(F)cc1Cl` (stereo not drawn) [Example 232, [2-Chloro-4-fluoro-5-(7-morpholin-4-yl-pyrido[3,2-d}-pyrimidin-4-yl)-phenyl]-(3-methoxy-pyrazin-2-yl)-methanol], the IC50 lay in the range of 0.007 to 0.03 µM in data set [1] (biochemical DNA-PK assay) and 10 to 30 µM in data set [3] (setting [7]). The Ki in data set [2] (setting [8]) was greater than 25 µM.
Regarding `OC(c1ccc(F)c(-c2ncnc3cc(N4CCOCC4)ccc23)c1)c1nncc2ccsc12` (stereo not drawn) [Example 332, [4-Fluoro-3-(7-morpholin-4-yl-quinazolin-4-yl)-phenyl]thieno[2,3-d}-pyridazin-7-yl-methanol], the IC50 was less than 0.003 µM in data set [1] (biochemical DNA-PK assay) and less than 0.5 µM in data set [3] (setting [7]). Further, in data set [2] (setting [6]), the Ki is 15 to 25 µM.
On to `OC(c1ccc(F)c(-c2ncnc3cc(C4=CCOCC4)ccc23)c1)c1nccs1` (stereo not drawn) [Example 139, {3-[7-(3,6-Dihydro-2H-pyran-4-yl)-quinazolin-4-yl]-4-fluoro-phenyl}-thiazol-2-ylmethanol], for which the IC50 in data set [1] (Table 5) lay within 0.007 to 0.03 µM; in data set [3] (Table 5, HCT116 cells), 10 to 30 µM. Moreover, the Ki in data set [2] (setting [9]) is greater than 25 µM.
As to `OC(c1ccc(F)c(-c2ncnc3cc(N4CCOCC4)ccc23)c1)c1ncnn2cccc12` (stereo not drawn) [Example 345, [4-Fluoro-3-(7-morpholin-4-yl-quinazolin-4-yl)-phenyl]pyrrolo[2,1-f]-[1,2,4]triazin-4-yl-methanol], the IC50 in data set [1] (biochemical DNA-PK assay) is less than 0.003 µM; in data set [3] (setting [7]) it was less than 0.5 µM. In addition, the Ki in data set [2] (setting [8]) was less than 10 µM.
In the case of `OC(c1ccc2nccn2n1)c1cc(-c2ncnc3cc(N4CCOCC4)ccc23)c(F)cc1Cl` (stereo not drawn) [Example 63, [2-Chloro-4-fluoro-5-(7-morpholin-4-yl-quinazolin-4-yl)phenyl]-imidazo[1,2-b]pyridazin-6-ylmethanol], the half-maximal inhibitory concentration (IC50) in data set [1] (enzymatic, 5 μM ATP) was less than 0.003 µM; in data set [3] (setting [5]), 0.5 to 5 µM. In addition, in data set [2] (setting [10]), the Ki was in the range of 10 to 15 µM.
The corresponding values for `Cc1nccnc1[C@@H](O)c1ccc(F)c(-c2ncnc3cc(N4CCOCC4)ccc23)c1` [Example 82] are 0.007 to 0.03 µM, 0.5 to 5 µM and greater than 25 µM.
As for `Cn1ncc2c(C(O)c3cc(-c4ncnc5cc(N6CCOCC6)ccc45)ccc3Cl)ncnc21` (stereo not drawn) [Example 385, [2-Chloro-5-(7-morpholin-4-yl-quinazolin-4-yl)-phenyl]-(1-methyl-1H-pyrazolo[3,4-d}-pyrimidin-4-yl)-methanol], the results for the IC50 in data set [1] (biochemical DNA-PK assay) and in data set [3] (setting [7]) were 0.007 to 0.03 µM and 0.5 to 5 µM, respectively. Besides, in data set [2] (setting [8]), the Ki is greater than 25 µM.
In the case of `COc1nccnc1C(O)c1cc(-c2ncnc3cc(N4CCOCC4)ccc23)c(F)cc1F` (stereo not drawn) [Example 454, [2,4-Difluoro-5-(7-morpholin-4-yl-quinazolin-4-yl)-phenyl]-(3-methoxy-pyrazin-2-yl)-methanol], the IC50 in data set [1] (biochemical DNA-PK assay) was less than 0.003 µM; in data set [3] (setting [7]), less than 0.5 µM. In addition, in data set [2] (setting [8]), the Ki was greater than 25 µM.
Turning to `OCc1csc([C@@H](O)c2cc(-c3ncnc4cc(N5CCOCC5)ccc34)c(F)cc2Cl)n1` [Example 185, (S)-[2-Chloro-4-fluoro-5-(7-morpholin-4-yl-quinazolin-4-yl)-phenyl]-(4-hydroxymethyl-thiazol-2-yl)-methanol], the IC50 in data set [1] (Table 5) is less than 0.003 µM; in data set [3] (Table 5, HCT116 cells), 0.5 to 5 µM. Further, the Ki in data set [2] (setting [9]) was greater than 25 µM.
With `OC(c1cc(-c2ncnc3cc(N4CCOCC4)ccc23)c(F)cc1Cl)c1nccn2cccc12` (stereo not drawn) [Example 359, [2-Chloro-4-fluoro-5-(7-morpholin-4-yl-quinazolin-4-yl)-phenyl]pyrrolo[1,2-a]-pyrazin-1-ylmethanol], the IC50 is less than 0.003 µM in data set [1] (biochemical DNA-PK assay) and less than 0.5 µM in data set [3] (setting [7]). Besides, the Ki in data set [2] (setting [8]) is less than 10 µM.
With `OC(c1cc(-c2ncnc3cc(N4CCOCC4)ccc23)c(F)cc1F)c1nccnc1OC(F)F` (stereo not drawn) [Example 450, (3-Difluoromethoxy-pyrazin-2-yl)-[2,4-difluoro-5-(7-morpholin-4-yl-quinazolin-4-yl)-phenyl]methanol], the IC50 in data set [1] (biochemical DNA-PK assay) is 0.007 to 0.03 µM; in data set [3] (setting [7]) it was 5 to 10 µM. In data set [2] (setting [6]), the Ki fell in the range of 15 to 25 µM.
For the molecule `COc1ccc(C(C)(O)c2cc(-c3ncnc4cc(N5CCOCC5)ccc34)c(F)cc2Cl)nn1` (stereo not drawn) [Example 125, 1-[2-Chloro-4-fluoro-5-(7-morpholin-4-yl-quinazolin-4-yl)-phenyl]-1-(6-methoxy-pyridazin-3-yl)-ethanol], the IC50 in data set [1] (enzymatic, 5 μM ATP) was in the range of 0.003 to 0.007 µM; in data set [3] (setting [5]), 10 to 30 µM. In data set [2] (setting [4]), this molecule showed a Ki of 15 to 25 µM.
Turning to `OC(c1cc(-c2ncnc3cc(N4CCOCC4)ccc23)c(F)cc1Cl)c1ncnc2ccoc12` (stereo not drawn) [Example 441, [2-Chloro-4-fluoro-5-(7-morpholin-4-yl-quinazolin-4-yl)-phenyl]furo[3,2-d}-pyrimidin-4-yl-methanol], the concentration for half-maximal inhibition (IC50) in data set [1] (biochemical DNA-PK assay) was less than 0.003 µM; in data set [3] (setting [7]) it was less than 0.5 µM. The Ki in data set [2] (setting [6]) was 10 to 15 µM.
As for `N#CCOc1ccc(C(O)c2cc(-c3ncnc4cc(N5CCOCC5)ccc34)c(F)cc2Cl)nn1` (stereo not drawn) [Example 119, (6-{(2-Chloro-4-fluoro-5-(7-morpholin-4-yl-quinazolin-4-yl)-phenyl] hydroxy-methyl}pyridazin-3-yl-oxy)acetonitrile], the IC50 in data set [1] (enzymatic, 5 μM ATP) is less than 0.003 µM; in data set [3] (setting [5]), less than 0.5 µM. This molecule yielded a Ki in data set [2] (setting [4]) of 15 to 25 µM.
Consider `COc1nccnc1C(C(N)=O)c1cc(-c2ncnc3cc(N4CCOCC4)ccc23)ccc1Cl` (stereo not drawn) [Example 304, 2-[2-Chloro-5-(7-morpholin-4-yl-quinazolin-4-yl)-phenyl]-2-(3-methoxy-pyrazin-2-yl)acetamide], for which the IC50 in data set [1] (biochemical DNA-PK assay) was in the range of 0.007 to 0.03 µM; in data set [3] (setting [7]) it was 5 to 10 µM. Moreover, in data set [2] (setting [8]), the Ki was greater than 25 µM.
For `Cc1cncnc1C(O)c1cc(-c2ncnc3cc(N4CCOCC4)ccc23)ccc1Cl` (stereo not drawn) [Example 417, [2-Chloro-5-(7-morpholin-4-yl-quinazolin-4-yl)-phenyl]-(5-methyl-pyrimidin-4-yl)-methanol], the IC50 in data set [1] (biochemical DNA-PK assay) was 0.007 to 0.03 µM; in data set [3] (setting [7]), 0.5 to 5 µM. In data set [2] (setting [6]), this molecule registered a Ki of 15 to 25 µM.
Turning to `Cc1nccnc1C(C(N)=O)c1cc(-c2ncnc3cc(N4CCOCC4)ccc23)c(F)cc1F` (stereo not drawn) [Example 329, 2-[2,4-Difluoro-5-(7-morpholin-4-yl-quinazolin-4-yl)-phenyl]-2-(3-methyl-pyrazin-2-yl)-acetamide], the IC50 fell in the range of 0.007 to 0.03 µM in data set [1] (biochemical DNA-PK assay) and 5 to 10 µM in data set [3] (setting [7]). Also, the Ki in data set [2] (setting [8]) is greater than 25 µM.
`Cn1nc(C(O)c2cc(-c3ncnc4cc(N5CCOCC5)ccc34)c(F)cc2Cl)ccc1=O` (stereo not drawn) [Example 59, 6-{[2-Chloro-4-fluoro-5-(7-morpholin-4-yl-quinazolin-4-yl)phenyl]-hydroxymethyl}-2-methyl-2H-pyridazin-3-one]: the IC50 in data set [1] (enzymatic, 5 μM ATP) is less than 0.003 µM; in data set [3] (setting [5]), 0.5 to 5 µM. In data set [2] (setting [4]), the Ki fell in the range of 15 to 25 µM.
As to `Cc1nccnc1C(O)c1ccc(F)c(-c2ncnc3cc(N4CCOCC4)ccc23)c1` (stereo not drawn) [Example 78, [4-Fluoro-3-(7-morpholin-4-yl-quinazolin-4-yl)phenyl]-(3-methylpyrazin-2-yl)-methanol], the IC50 in data set [1] (enzymatic, 5 μM ATP) was 0.003 to 0.007 µM; in data set [3] (setting [5]) it was less than 0.5 µM. In addition, in data set [2] (setting [4]), the Ki was in the range of 15 to 25 µM.
Take `Cn1cnc2c(C(O)c3cc(-c4ncnc5cc(N6CCOCC6)ccc45)ccc3Cl)ncnc21` (stereo not drawn) [Example 371, [2-Chloro-5-(7-morpholin-4-yl-quinazolin-4-yl)-phenyl]-(9-methyl-9H-purin-6-yl)-methanol]: the IC50 was 0.007 to 0.03 µM in data set [1] (biochemical DNA-PK assay) and 0.5 to 5 µM in data set [3] (setting [7]). This molecule had a Ki in data set [2] (setting [6]) of 10 to 15 µM.
Consider `Cn1cnc2ncnc(C(O)c3ccc(F)c(-c4ncnc5cc(N6CCOCC6)ccc45)c3)c21` (stereo not drawn) [Example 433, [4-Fluoro-3-(7-morpholin-4-yl-quinazolin-4-yl)-phenyl]-(7-methyl-7H-purin-6-yl)-methanol], for which the IC50 fell in the range of 0.007 to 0.03 µM in data set [1] (biochemical DNA-PK assay) and 0.5 to 5 µM in data set [3] (setting [7]). Also, the Ki in data set [2] (setting [8]) was greater than 25 µM.
For the molecule `COc1ccc(C(O)c2cc(-c3ncnc4cc(N5CCOCC5)ccc34)ccc2F)nn1` (stereo not drawn) [Example 357, [2-Fluoro-5-(7-morpholin-4-yl-quinazolin-4-yl)-phenyl]-(6-methoxy-pyridazin-3-yl)-methanol], the IC50 was 0.003 to 0.007 µM in data set [1] (biochemical DNA-PK assay) and 0.5 to 5 µM in data set [3] (setting [7]). For the same molecule, in data set [2] (setting [8]), the Ki is greater than 25 µM.
